From patent US4959378A, “Aminopyridinylaminophenol compounds useful as topical antiinflammatory agents for the treatment of skin disorders” (Hoechst-Roussel Pharmaceuticals Inc., priority 1989, dated 1990)

How the values were obtained:
[1] = test system: naja naja (snake venom) phospholipase A2 -induced paw edema; test: Phospholipase A2-induced Paw Edema (PIPE); assay type: in vivo, rat; settings: for PIPE (0.1 M), difference in edema vs. control: 0.1M test compound injected with PLA2 (3 units/paw) subplantar, rat left hindpaw, two hours post administration
Procedure: Phospholipase A2 -induced Paw Edema (PIPE)
The ability of compounds to prevent naja naja (snake venom) phospholipase A2 -induced paw edema in male Wistar rates (100-125 g) was measured. PLA2 (3 units/paw) alone or with 0.1M of the test compound was injected in the subplantar region of the rat left hindpaw. Immediately subsequent to the injection and at two hours post administration the paw was immersed in a mercury bath, and paw displacement was measured on a recorder via a transducer. […] See Giessler, A. J. et al., Agents and Actions, Vol. 10, Trends in Inflammation Research (1981), p. 195.

porcine pancreatic PLA2 = target: T1, porcine pancreatic PLA2 (Sus scrofa, UniProt P00592); test: In Vitro Phospholipase A2 Assay (PLA2); assay type: biochemical; settings: 0.01 M test compound; porcine pancreatic PLA2 3.2 units, pH 8.0, 37° C.; read-out: PLA2 (0.01 M), difference vs. control
T1 construct: from tissue; host or cells: porcine pancreas
T1 sequence (P00592 23-146): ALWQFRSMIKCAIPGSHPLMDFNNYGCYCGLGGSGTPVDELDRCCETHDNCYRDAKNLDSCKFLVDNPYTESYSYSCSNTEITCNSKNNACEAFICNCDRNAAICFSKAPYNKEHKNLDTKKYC
Procedure: In Vitro Phospholipase A2 Assay (PLA2)
The ability of a compound to modulate PLA2 activity (cleavage of ^14 C-dipalmitoyl phosphotidylcholine at the 2-position to ^14 C-palmitic acid) was quantitated in this assay. The reaction mixture contained Tris buffer (25 mM), pH 8.0, calcium chloride (2.0 mM), bovine serum albumin (0.5 mg), dipalmitoyl phosphotidylcholine (8×10^-5M), (^14 C-palmitoyl)dipalmitoyl phosphotidylcholine (6×10^3cpm), porcine pancreatic PLA2 (3.2 units) and the test compound. The reaction was run at 37° C. in a shaking incubator. The reaction was quenched and an internal standard was added in order to determine sample recovery. The samples were loaded onto C18 columns, eluted with ethanol, and the radioactivity was then measured. […] See Feyen, J. H. M., et al., Journal of Chromatography 259 (1983), pp. 338-340.

| SMILES | PIPE (0.1 M), difference in edema vs. control [1] [%] | inhibition at 10000 µM (porcine pancreatic PLA2) [%] | ED50 (PIPE standard) ([1]; standard, subplantar injection with PLA2, male Wistar rats) [M] |
| --- | --- | --- | --- |
| Nc1ccncc1Nc1cccc(O)c1 [3-[(4-Amino-3-pyridinyl)amino]phenol] | -52 | 35 |  |
| Nc1ccncc1Nc1ccc(O)cc1.O=C(O)/C=C\C(=O)O [4-[(4-Amino-3-pyridinyl)amino]phenol maleate] | -62 | 35 |  |
| C[C@]12CCC(=O)C=C1CC[C@@H]1[C@@H]2[C@@H](O)C[C@@]2(C)[C@H]1CC[C@]2(O)C(=O)CO [hydrocortisone, reference compound] |  |  | 0.46 |
